Entries after “also recorded” stand apart in the source; their conditions may differ. Where two headings read alike, the source gives them in different places.
What was measured:
[1] = system: MK-801-induced working memory deficit in rats; assay: Radial arm maze (RAM) test, MK-801-induced working memory deficit; assay type: in vivo, rat; settings: for RAM (effective doses): summary
Procedure: RAM tests were performed using 9-week-old male Long-Evans rats as previously described with a minor modification. Each arm was 50 cm long, 10 cm wide and 40 cm high, and the maze was elevated 50 cm above the floor. Long-Evans rats were food-restricted to 85% of free-feeding body weight throughout the experimental period. Rats were well trained to collect pellets placed on the edge of each arm. The learning criterion for the testing session was defined as 2 errors or fewer for 2 consecutive days. In the testing session, each rat was placed on the maze facing the fixed arm at the start of the trial. The entry of rats into each arm was recorded in sequence until all pellets in the 8 arms were consumed, or 5 min had elapsed. […] Thirty min after dosing of vehicle or MK-801, rats were placed on the maze. Details are described in the Supplementary Information.
The experiment was performed using 9-week-old male Long-Evans rats as described previously (Zajaczkowski et al., 1996) with a minor modification. Each arm was 50 cm long, 10 cm wide and 40 cm high, and the maze was elevated 50 cm above the floor. After being fasted for 24 h, male Long-Evans rats were food-restricted to 85% of free-feeding body weight on the first day of exposure to the maze and throughout the experimental period. The experiment consists of two sessions, training and testing session. In the training session, rats were habituated to the maze and then trained. Reinforcement consisted of 3 food pellets (45 mg each) in the food cup was used. On the first day of habituation to the maze, reinforcements were placed near the entrance and at the mid-point of each arm. Three rats were placed on the maze at one time and allowed to explore and consume the pellets for 8 min. On the second day of habituation, each rat was placed on the maze and allowed 5 min to consume the pellets placed at the mid-point and in the food cup at the end of each arm. From the third day, reinforcement was placed in the food cup at the end of each arm. Rats were well trained to collect pellets placed on the edge of each arm. The learning criterion for the testing session was defined as 2 errors or less for two consecutive days. In the previous day of the testing session, baseline level of performance was qualified to confirm that rats completed collecting all pellets placed in the 8 arms with two errors or less. In the testing session, each rat was placed on the maze facing away from the experimenter and facing the fixed arm at the start of the trial. The entry of rats into each arm was recorded in sequence. Rats were allowed to explore until all pellets in the 8 arms were consumed, or 5 min had elapsed. Entry into an arm previously chosen was counted as an error. […] […] Thirty min after dosing of vehicle or MK-801, rats were placed on the maze. Data were indicated as the mean ± SEM in the testing session.

AMPA-R = assay: Whole-cell patch clamp recording in acute PFC slices (AMPA-R-mediated EPSPs); assay type: cell-based, rat; design: key to Synaptic EPSP response: -: No effect or slight effect; +: Potent; ++: Very potent; settings: for Synaptic EPSP response: summary grade; for Spike number and EPSP duration after switch from LY451646 (30 μM): 10 μM
Procedure: Coronal PFC slices were prepared from male Sprague–Dawley rats (10- to 14-day-old). The slices including layer V PFC pyramidal neurons were perfused at a flow rate of 1–2 ml/min with recording aCSF containing the following: 124 mM NaCl, 5 mM KCl, 1.2 mM NaH2PO4, 1.5 mM MgCl2, 2.5 mM CaCl2, 10 mM glucose, 24 mM NaHCO3 bubbled with carbogen (95% O2; 5% CO2). Current clamp recordings at holding potential of approximately − 65 mV with constant current were carried out at 32–33 °C using a pipette filled with an intracellular solution consisting of: 140 mM K-gluconate, 4 mM KCl, 10 mM HEPES, 0.2 mM EGTA, 4 mM MgATP, 0.3 mM Na2GTP, pH 7.3 with KOH in the presence of bicuculline (20 μM), CGP52422 (10 μM), and APV (50 μM) to block GABAA and B and NMDA receptors, respectively. Methods are described in the Supplementary Information.
Coronal prefrontal cortex (PFC) slices were prepared from male Sprague-Dawley rats (10- to 14-day-old). Animals were sacrificed following acute decapitation, and their brain was quickly removed and placed in an ice-cold modified artificial cerebrospinal fluid (aCSF) of the following composition: 92 mM N-methyl-D-glucamine (NMDG), 2.5 mM KCl, 1.25 mM NaH2PO4, 30 mM NaHCO3, 20 mM HEPES, 25 mM glucose, 2 mM thiourea, 5 mM Na-ascorbate, 3 mM Na-pyruvate, 0.5 mM CaCl2, and 10 mM MgSO4. The pH of the solution was titrated to 7.3-7.4 with concentrated HCl. Coronal slices were cut at a thickness of 300 μm with using a linear slicer PRO7 (Dosaka EM, Kyoto, Japan). Slices were initially recovered for ≤ 15 min at 34°C and then transferred to a holding chamber containing HEPES holding aCSF (92 mM NaCl, 2.5 mM KCl, 1.25 mM NaH2PO4, 30 mM NaHCO3, 20 mM HEPES, 25 mM glucose, 2 mM thiourea, 5 mM Na-ascorbate, 3 mM Na-pyruvate, 2 mM CaCl2 and 2 mM MgSO4) at room temperature for at least 1 h before starting the recording. The slices were then transferred to the recording chamber mounted on a FN1 microscope (Nikon, Tokyo, Japan), in which they were submerged and perfused at a flow rate of 1-2 ml/min with recording aCSF containing the following: 124 mM NaCl, 5 mM KCl, 1.2 mM NaH2PO4, 1.5 mM MgCl2, 2.5 mM CaCl2, 10 mM glucose, 24 mM NaHCO3. All aCSF solutions were continuously bubbled with carbogen (95% O2; 5% CO2). Differential interference contrast (DIC) microscopy (C10639, Hamamatsu, Japan) was used to visualize pyramidal neurons in the PFC. Patch pipettes (5-6 MΩ) were prepared from borosilicate capillary glass using a micropipette puller PC-10 (NARISHIGE, Tokyo, Japan). Current clamp recordings were carried out at 32-33°C using a pipette filled with intracellular solution consisting of: 140 mM K-gluconate, 4 mM KCl, 10 mM HEPES, 0.2 mM EGTA, 4 mM MgATP, 0.3 mM Na2GTP, pH 7.3 with KOH in the presence of bicuculline (20 μM), CGP52422 (10 μM), and APV (50 μM) to block GABAA and B and NMDA receptors, respectively. Signals were recorded using a Multiclamp 700B amplifier (Molecular Devices, LLC, Orleans Drive Sunnyvale, CA), digitized using a Digidata 1440A interface board, filtered between 2 kHz, sampled at 10 kHz, and analyzed with pClamp10 software. Layer V PFC pyramidal neurons were recorded at holding potential of approximately –65 mV with constant current. A hyperpolarizing step (–20 pA) prior to each stimulation was used to monitor any changes in access resistance. Postsynaptic potentials were evoked by constant current single stimulation pulses (100 μs, 10-100 μA) delivered with a 20-s interstimulus interval using monopolar stimulating electrodes positioned in layer I.

SMILES | Working memory in the RAM test ([1]; 0.1 to 3 mg/kg, i.p., MK-801 0.08 mg/kg, s.c.) | RAM (effective doses) [1] | Membrane potentials of recorded neurons (AMPA-R; 0.3 μM) | Polysynaptic EPSP duration and evoked spike number (AMPA-R; 0.3 μM, 5 min, membrane held at −65 mV) | Synaptic EPSP response (AMPA-R) | MK-801-induced deficits in RAM task ([1]; 0.1, 0.3, 3 and 10 mg/kg, p.o., MK-801 0.08 mg/kg, s.c.) | Membrane potentials of recorded neurons (AMPA-R) | Spike number and EPSP duration after switch from LY451646 (30 μM) (AMPA-R) | Suprathreshold response (AMPA-R; 10 μM for 10 min) | Spike number and EPSP duration after switch from LY451646 (30 μM) (AMPA-R; listed as TAK653) | Suprathreshold polysynaptic EPSPs (evoked spikes, EPSP duration) (AMPA-R; 0.3 to 30 μM, 10 min bath application)
Cc1onc(O)c1CC(N)C(=O)O (stereo not drawn) [AMPA, alpha-amino-3-hydroxy-5-methyl-4-isoxazole-propionic acid] | neither LY451646 at 0.03 to 1 mg/kg, p.o. nor AMPA at 0.1 to 3 mg/kg, i.p. improve | No effect | increased | reduced; also recorded: diminished the suprathreshold response | ─ |  |  |  |  |  | 
CC1=CN2CCS(=O)(=O)N=C2C(c2ccc(OC3CCCCC3)cc2)=N1 [TAK-653, 9-[4-(Cyclohexyloxy)phenyl]-7-methyl-3,4-dihydropyrazino[2,1-c][1,2,4]thiadiazine 2,2-dioxide] |  | Effective (0.1, 0.3, 3, 10) |  |  | ++ | significantly ameliorated | did not increase | a clear increase | enhanced the suprathreshold response | further augmentation of spike number | enhanced
